# In ChEMBL document CHEMBL1150712, “Plant anticancer agents, XLIII. (E,E)-7, 12-dioxo-octadeca-8, 10-dien-1-oic acid (ostopanic acid), a cytotoxic fatty acid from Ostodes Paniculata” (1987):
# Tested on: P388
# Experiment: Cytotoxicity against mouse P388 cells
# Format: functional
# Conditions: read-out: ED50 (the source's name)
smiles,measurement,value
CCCCCCC(=O)/C=C/C=C/C(=O)CCCCCC(=O)O [OSTOPANIC ACID],EC50,1.5 µg/mL
